# From ChEMBL document CHEMBL5230096, “A comprehensive insight on the recent development of Cyclic Dependent Kinase inhibitors as anticancer agents” (Eur J Med Chem, 2020)
# Assays:
# MCF7 [1] = assay: Anticancer activity against human MCF7 cells assessed as reduction in cell viability incubated for 48 hrs by MTT assay; assay type: functional, cell-based; details: MCF7, 48 h
# HCT-116 [2] = assay: Anticancer activity against human HCT-116 cells assessed as reduction in cell viability incubated for 48 hrs by MTT assay; assay type: functional, cell-based; details: HCT-116, 48 h
# MCF7 [3] = assay: Antiproliferative activity against human MCF7 cells assessed reduction in cell proliferation; assay type: functional, cell-based
# [4] = target: T1, Cyclin-dependent kinase 2 (Homo sapiens, UniProt P24941)
# B16-F10 = assay: Antiproliferative activity against mouse B16-F10 cells assessed reduction in cell proliferation; assay type: functional, cell-based
# Histone deacetylase = assay: Inhibition of HDAC (unknown origin); assay type: protein assay, Homo sapiens
# [5] = system: Human immunodeficiency virus 1; assay: Antiviral activity against HIV1; assay type: functional, organism-based
# [6] = target: T1, Cyclin-dependent kinase 2; assay: Inhibition of CDK2 (unknown origin) incubated for 10 min using histone H1 as substrate in presence of gamma32P-ATP by radioactive assay
# NCI-H522 = assay: Cytotoxicity against human NCI-H522 cells assessed cell growth inhibition incubated for 2 days by MTT assay; assay type: functional, cell-based; details: NCI-H522, 48 h
# [7] = Cytotoxicity against human U87 cells assessed cell growth inhibition incubated for 2 days by MTT assay; assay type: functional, cell-based, U-87MG ATCC; details: U-87 MG, 48 h
# [8] = Cytotoxicity against human L02 cells assessed cell growth inhibition incubated for 2 days by MTT assay; assay type: toxicity, cell-based
# [9] = system: Panel NCI-60 (60 carcinoma cell lines); assay: Antiproliferative activity against human Panel NCI-60 (60 carcinoma cell lines) assessed as reduction in cell viability at 10 uM; assay type: functional
# CDK2/Cyclin A2 [10] = target: T2, CDK2/Cyclin A2 (Homo sapiens, UniProt P24941); assay: Inhibition of CDK2/Cyclin A2 (unknown origin) incubated for 40 mins in presence of ATP by Kinase-Glo Plus luminescence kinase assay; assay type: protein-complex assay
# [11] = target: T3, CDK2/Cyclin A2 (Homo sapiens) (UniProt P24941+P20248); assay: Inhibition of CDK2/Cyclin A2 (unknown origin) at 10 uM incubated for 40 mins in presence of ATP by Kinase-Glo Plus luminescence kinase assay; assay type: protein-complex assay
# [12] = target: T4, Protein cereblon/Cyclin-dependent kinase 9 (Homo sapiens) (UniProt P50750+Q96SW2); assay: Protac activity at CRBN/CDK9 in human HCT-116 cells assessed as induction of CDK9 degradation at 20 uM incubated for 6 hrs by Western blot analysis; assay type: cell-based
# T4 sequence (P50750 whole entry, looked up): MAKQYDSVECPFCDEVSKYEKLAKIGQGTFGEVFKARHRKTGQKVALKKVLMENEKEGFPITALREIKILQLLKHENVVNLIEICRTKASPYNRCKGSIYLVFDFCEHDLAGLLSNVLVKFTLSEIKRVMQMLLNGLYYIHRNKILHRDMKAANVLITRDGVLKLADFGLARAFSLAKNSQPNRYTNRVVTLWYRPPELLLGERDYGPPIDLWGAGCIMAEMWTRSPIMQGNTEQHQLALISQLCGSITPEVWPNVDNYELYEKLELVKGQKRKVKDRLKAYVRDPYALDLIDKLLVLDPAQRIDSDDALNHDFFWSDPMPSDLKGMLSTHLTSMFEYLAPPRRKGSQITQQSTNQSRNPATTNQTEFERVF
# T4 sequence (Q96SW2 whole entry, looked up): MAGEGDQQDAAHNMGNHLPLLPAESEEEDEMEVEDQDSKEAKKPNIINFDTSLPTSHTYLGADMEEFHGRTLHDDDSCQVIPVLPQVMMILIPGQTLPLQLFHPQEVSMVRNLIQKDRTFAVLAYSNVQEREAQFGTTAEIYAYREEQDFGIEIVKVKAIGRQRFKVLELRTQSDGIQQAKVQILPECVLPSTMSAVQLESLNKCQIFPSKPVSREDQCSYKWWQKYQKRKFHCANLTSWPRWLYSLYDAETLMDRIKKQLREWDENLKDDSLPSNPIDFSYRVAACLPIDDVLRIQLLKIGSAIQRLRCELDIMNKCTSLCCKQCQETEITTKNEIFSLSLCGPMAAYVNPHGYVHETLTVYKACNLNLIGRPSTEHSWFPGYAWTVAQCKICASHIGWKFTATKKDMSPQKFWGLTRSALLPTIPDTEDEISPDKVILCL
# [13] = target: T4, Protein cereblon/Cyclin-dependent kinase 9 (Homo sapiens); assay: Protac activity at CRBN/CDK9 in human HCT-116 cells assessed as induction of CDK9 degradation at 10 uM incubated for 6 hrs by Western blot analysis; assay type: cell-based
# LS174T = assay: Antitumor activity against human LS174T cells assessed as reduction in cell viability by MTT assay; assay type: functional, cell-based
# A549 [14] = assay: Antitumor activity against human A549 cells assessed as reduction in cell viability by MTT assay; assay type: functional, cell-based
# [15] = target: Cyclin-dependent kinase 4 (Homo sapiens, UniProt P11802); assay: Inhibition of CDK4 (unknown origin) by kinase assay
# Chain of Cyclin-dependent kinase 4 (P11802 whole entry): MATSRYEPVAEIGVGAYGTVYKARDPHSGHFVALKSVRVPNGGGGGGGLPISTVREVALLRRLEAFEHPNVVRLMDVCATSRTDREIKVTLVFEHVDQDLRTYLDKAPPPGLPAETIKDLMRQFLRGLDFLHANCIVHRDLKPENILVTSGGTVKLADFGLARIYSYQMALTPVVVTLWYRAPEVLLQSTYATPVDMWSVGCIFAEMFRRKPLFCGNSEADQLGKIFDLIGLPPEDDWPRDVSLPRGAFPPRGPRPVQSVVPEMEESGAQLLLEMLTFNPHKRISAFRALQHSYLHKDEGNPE
# Bel-7402 = assay: Antitumor activity against human Bel-7402 cells assessed as reduction in cell viability by MTT assay; assay type: functional, cell-based
# HeLa [16] = assay: Antitumor activity against human HeLa cells assessed as reduction in cell viability by MTT assay; assay type: functional, cell-based
# [17] = target: Cyclin-dependent kinase 1 (Homo sapiens, UniProt P06493); assay: Inhibition of CDK1 (unknown origin) assessed as inhibition constant
# Chain of Cyclin-dependent kinase 1 (P06493 whole entry): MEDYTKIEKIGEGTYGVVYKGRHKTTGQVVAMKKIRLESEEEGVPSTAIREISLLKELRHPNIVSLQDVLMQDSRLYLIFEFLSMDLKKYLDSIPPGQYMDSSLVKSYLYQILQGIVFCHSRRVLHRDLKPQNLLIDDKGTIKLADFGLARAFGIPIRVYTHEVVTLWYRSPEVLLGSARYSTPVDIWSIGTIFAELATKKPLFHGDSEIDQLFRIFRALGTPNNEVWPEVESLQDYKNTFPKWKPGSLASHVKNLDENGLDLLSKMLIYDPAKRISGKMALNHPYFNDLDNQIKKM
# [18] = target: T3, CDK2/Cyclin A2 (Homo sapiens); assay: Inhibition of CDK2/Cyclin A2 (unknown origin) at 10 uM by Kinase-Glo Plus luminescence kinase assay; assay type: protein-complex assay
# MCF7 [19] = assay: Cytotoxicity against human MCF7 cells assessed as reduction in cell viability by MTT assay; assay type: functional, cell-based
# CDK7/Cyclin H/MNAT1 = CDK7/Cyclin H/MNAT1 (Homo sapiens, UniProt P50613); assay: Inhibition of CDK7/Cyclin H/MNAT1 (unknown origin) using 5-FAM-YSPTSPSYSPTSPSYSPTSPSKKK as substrate in presence of ATP by spectroscopic analysis; assay type: protein-complex assay
# Chain of CDK7/Cyclin H/MNAT1 (P51946 whole entry): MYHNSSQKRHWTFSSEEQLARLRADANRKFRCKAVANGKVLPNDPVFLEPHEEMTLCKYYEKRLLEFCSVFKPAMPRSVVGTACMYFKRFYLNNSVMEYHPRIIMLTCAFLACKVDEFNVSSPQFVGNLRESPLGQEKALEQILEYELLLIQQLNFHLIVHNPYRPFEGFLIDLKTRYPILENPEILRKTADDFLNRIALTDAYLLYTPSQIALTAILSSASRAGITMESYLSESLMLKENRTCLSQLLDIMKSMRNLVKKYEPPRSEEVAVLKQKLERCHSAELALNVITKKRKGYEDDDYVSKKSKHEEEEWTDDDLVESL
# Chain of CDK7/Cyclin H/MNAT1 (P50613 whole entry): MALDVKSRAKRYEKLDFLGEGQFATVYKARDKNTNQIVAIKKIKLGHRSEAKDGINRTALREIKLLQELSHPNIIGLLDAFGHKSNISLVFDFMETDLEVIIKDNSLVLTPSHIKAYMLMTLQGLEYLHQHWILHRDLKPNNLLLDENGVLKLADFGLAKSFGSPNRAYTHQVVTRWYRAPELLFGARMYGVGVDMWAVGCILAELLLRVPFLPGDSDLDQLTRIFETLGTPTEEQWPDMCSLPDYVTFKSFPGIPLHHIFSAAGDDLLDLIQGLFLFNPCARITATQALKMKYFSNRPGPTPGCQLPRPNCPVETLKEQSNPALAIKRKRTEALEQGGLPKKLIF
# Chain of CDK7/Cyclin H/MNAT1 (P51948 whole entry, further chain): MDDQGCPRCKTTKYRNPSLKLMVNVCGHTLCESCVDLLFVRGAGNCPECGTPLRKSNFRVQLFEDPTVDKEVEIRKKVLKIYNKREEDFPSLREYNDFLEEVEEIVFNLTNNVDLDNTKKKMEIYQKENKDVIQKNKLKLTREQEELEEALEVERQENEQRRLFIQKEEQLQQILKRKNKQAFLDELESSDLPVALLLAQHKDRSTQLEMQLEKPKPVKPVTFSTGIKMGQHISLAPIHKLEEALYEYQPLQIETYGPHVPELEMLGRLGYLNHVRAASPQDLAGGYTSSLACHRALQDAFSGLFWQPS
# CDK9/cyclin T1 = CDK9/cyclin T1 (Homo sapiens, UniProt P50750); assay: Inhibition of CDK9/cyclin T1 (unknown origin) assessed as inhibition constant; assay type: protein-complex assay
# Chain of CDK9/cyclin T1 (O60563 whole entry): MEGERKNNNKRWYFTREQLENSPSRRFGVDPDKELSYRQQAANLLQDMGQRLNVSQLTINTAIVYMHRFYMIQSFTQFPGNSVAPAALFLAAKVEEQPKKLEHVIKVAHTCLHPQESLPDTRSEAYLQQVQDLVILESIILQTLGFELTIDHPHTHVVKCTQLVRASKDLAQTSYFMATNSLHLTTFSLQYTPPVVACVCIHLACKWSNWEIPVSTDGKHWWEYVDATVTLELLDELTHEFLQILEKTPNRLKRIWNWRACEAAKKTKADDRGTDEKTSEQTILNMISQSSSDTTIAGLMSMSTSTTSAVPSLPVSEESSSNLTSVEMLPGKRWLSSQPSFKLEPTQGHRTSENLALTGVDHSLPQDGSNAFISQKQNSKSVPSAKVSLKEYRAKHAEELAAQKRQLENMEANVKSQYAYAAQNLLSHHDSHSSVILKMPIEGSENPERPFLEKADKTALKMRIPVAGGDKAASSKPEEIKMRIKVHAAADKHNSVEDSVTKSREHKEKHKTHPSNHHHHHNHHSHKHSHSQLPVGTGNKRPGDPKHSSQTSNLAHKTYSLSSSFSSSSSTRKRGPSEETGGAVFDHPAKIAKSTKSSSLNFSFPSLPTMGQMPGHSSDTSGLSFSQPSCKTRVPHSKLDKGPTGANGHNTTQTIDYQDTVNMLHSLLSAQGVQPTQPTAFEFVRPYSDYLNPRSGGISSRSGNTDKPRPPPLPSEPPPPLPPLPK
# Chain of CDK9/cyclin T1 (P50750 whole entry): as the sequence (P50750 whole entry, looked up) above
# [20] = target: Cyclin-dependent kinase 2/cyclin E (Homo sapiens, UniProt P24941); assay: Inhibition of CDK2/Cyclin E (unknown origin) expressed in baculovirus infected Sf9 cells using histone H1 as substrate in presence of gamma32P-ATP by scintillation counter analysis
# MCF7 [21] = assay: Antiproliferative activity against human MCF7 cells assessed as reduction in cell proliferation incubated for 48 hrs by Sulfo-Rhodamine-B stain (SRB) assay; assay type: functional, cell-based; details: MCF7, 48 h
# [22] = target: T1, Cyclin-dependent kinase 2; assay: Inhibition of human CDK2 using TMB as substrate preincubated for 210 mins followed by substrate addition and measured after 15 to 25 mins by spectrophotometric analysis
# Caco-2 = assay: Antiproliferative activity against human Caco-2 cells assessed as reduction in cell viability by MTT assay; assay type: functional, cell-based
# MCF7 [23] = assay: Antiproliferative activity against human MCF7 cells assessed as reduction in cell viability by MTT assay; assay type: functional, cell-based
# HepG2 = assay: Antiproliferative activity against human HepG2 cells assessed as reduction in cell viability by MTT assay; assay type: functional, cell-based
# A549 [24] = assay: Antiproliferative activity against human A549 cells assessed as reduction in cell viability by MTT assay; assay type: functional, cell-based
# HeLa [25] = assay: Antiproliferative activity against human HeLa cells assessed as reduction in cell viability incubated for 3 days by MTT assay; assay type: functional, cell-based; details: 72 h
# [26] = AUC in Balb/c mouse at 10 mg/kg,po and measured upto 24 hrs by LC/MS/MS analysis; assay type: ADME, organism-based; design: time < 24 hrs, dose 10 mg/kg, route po; details: in vivo
# [27] = AUC in Wistar rat at 20 mg/kg,po and measured upto 24 hrs by LC/MS/MS analysis; assay type: ADME, organism-based; design: time < 24 hrs, dose 20 mg/kg, route po; details: in vivo
# MDA-MB-453 = assay: Antiproliferative activity against human MDA-MB-453 cells assessed as cell growth inhibition incubated for 72 hrs by MTT assay; assay type: functional
# MV4-11 = assay: Antiproliferative activity against human MV4-11 cells assessed as cell growth inhibition incubated for 72 hrs by resazurin assay; assay type: functional
# [28] = target: Cyclin-dependent kinase 9 (Homo sapiens, UniProt P50750); assay: Inhibition of CDK9 (unknown origin) using TMB as substrate by spectrophotometric analysis
# Chain of Cyclin-dependent kinase 9 (P50750 whole entry): as the sequence (P50750 whole entry, looked up) above
# A549 [29] = assay: Antiproliferative activity against human A549 cells assessed as reduction in cell viability incubated for 72 hrs by MTT assay; assay type: functional, cell-based; details: A549, 72 h
# CDK2/Cyclin A2 [30] = target: T2, CDK2/Cyclin A2; assay: Inhibition of CDK2/cyclin A2 (unknown origin) expressed in baculovirus expression system incubated for 1 hr using Ser/Thr12 Peptide as substrate in presence of ATP by Z-LYTE kinase assay
# HCT-116 [31] = assay: Antiproliferative activity against human HCT-116 cells assessed as reduction in cell viability incubated for 72 hrs by MTT assay; assay type: functional, cell-based; details: HCT-116, 72 h
# HL-60 = assay: Antiproliferative activity against human HL-60 cells assessed as reduction in cell viability incubated for 72 hrs by MTT assay; assay type: functional, cell-based; details: HL-60, 72 h
smiles,measurement,setting,value
Nc1ccc(-c2nc3ncccc3[nH]2)cc1,IC50,MCF7 [1],0.71 µM
same,IC50,HCT-116 [2],3.06 µM
O=C(CCCn1cc(CNC2CC2)c(-c2ccccc2)n1)NO,IC50,MCF7 [3],2.96 µM
same,IC50,[4],3.7 µM
same,IC50,B16-F10,2.53 µM
same,IC50,Histone deacetylase,2.76 µM
O=C(CCCn1cc(CNC2CCCCC2)c(-c2ccccc2)n1)NO,IC50,MCF7 [3],1.12 µM
same,IC50,[4],4.63 µM
same,IC50,B16-F10,3.9 µM
same,IC50,Histone deacetylase,2.95 µM
O=C(c1ccccc1)N1C(=O)C(C2C(=O)N(C(=O)c3ccccc3)C(=S)N(c3ccc(F)cc3)C2=O)C(=O)N(c2ccc(F)cc2)C1=S (stereo unspecified),IC50,[4],5.2 µM
same,IC50,[5],2.7 µM
Nc1c([N+](=O)[O-])cnc(NC2CCCCC2)c1[N+](=O)[O-],IC50,[6],1.8 µM
same,IC50,NCI-H522,2.89 µM
same,IC50,[7],3.19 µM
same,IC50 at 2 days,[8],86.7 µM
O=C(NCCc1ccccc1)c1cnn2c(-c3ccc(Cl)cc3)nc(NCCc3ccccc3)nc12,inhibition at 10 µM,[9],33.3%
same,IC50,CDK2/Cyclin A2 [10],1.85 µM
same,inhibition,[11],82%
O=C1CCC(N2C(=O)c3cccc(OCCCCCOc4ccc(CC(=O)Nc5cc(C6CCC6)[nH]n5)cc4)c3C2=O)C(=O)N1 (stereo unspecified),Activity,[12],65%
same,Activity,[13],56%
O=C1CC(=O)N(c2ccc(S(=O)(=O)Nc3nccs3)cc2)C(=S)N1C(=O)c1ccccc1,IC50,[5],4.5 µM
CN(Cc1ccccc1)C(=O)CCc1c[nH]c2ccccc12,IC50,LS174T,11 µM
same,IC50,A549 [14],16 µM
same,IC50,[15],10 µM
same,IC50,Bel-7402,14 µM
same,IC50,HeLa [16],25 µM
CC(=O)N1N=C(c2c(O)c3ccccc3oc2=O)CC1c1ccccc1Cl (stereo unspecified),Ki,[17],0.00035 µM
Cc1cc(C)nc(NS(=O)(=O)c2ccc(N/C=C3\C(=O)NN=C3Nc3ccccc3)cc2)n1,inhibition,[18],40%
O=C(CCn1cc(COC(=O)c2c[nH]c3ccccc23)nn1)NC(CC(=O)c1cc2ccccc2oc1=O)c1ccccc1Cl (stereo unspecified),IC50,MCF7 [19],17.5 µM
CN(C)C/C=C/C(=O)Nc1ccc(C(=O)N[C@@]2(C)CCC[C@@H](Nc3ncc(Cl)c(-c4c[nH]c5ccccc45)n3)C2)nc1,IC50,CDK7/Cyclin H/MNAT1,0.02 µM
C/C(=N\N=C\c1ccccc1)c1c(O)c2ccccc2oc1=O,Ki,CDK9/cyclin T1,0.00326 µM
O=c1[nH]cc(-c2ccccc2F)c2nccn12,IC50,[20],3.2 µM
COc1ccccc1/C=C/C(=C(C#N)C#N)c1ccc(NS(=O)(=O)c2ccc(C)cc2)cc1,IC50,MCF7 [21],26.3 µM
same,IC50,[22],2.92 µM
CCOC(=O)C1=C(C)n2nc(Nc3ccccc3)c(C#N)c2NC1c1ccc(OC)cc1 (stereo unspecified),IC50,Caco-2,25.2 µM
same,IC50,MCF7 [23],10.1 µM
same,IC50,HepG2,17.1 µM
same,IC50,A549 [24],29.9 µM
CN(C)c1ccc(-c2cc(-c3c(O)c4ccccc4oc3=O)nc(N)c2C#N)cc1,Ki,CDK9/cyclin T1,0.00326 µM
COc1cccc2c1C(=O)c1c(O)c3c(c(O)c1C2=O)C[C@@](O)(C(=O)CO)C[C@@H]3O[C@H]1C[C@H](N)[C@H](O)[C@H](C)O1 [DOXORUBICIN],IC50,HeLa [25],1.11 µM
CNc1nc(C)c(-c2nc(Nc3ccc(N4CCC(N(C)C)CC4)cn3)ncc2F)s1,AUC at 24 h,[26],4.3 µM·h
same,AUC at 24 h,[27],4.4 µM·h
same,GI50,MDA-MB-453,0.325 µM
same,GI50,MV4-11,0.107 µM
Nc1ccc(/N=N/c2ccc(-c3nc4ncccc4[nH]3)cc2)cc1,IC50,MCF7 [1],2.84 µM
same,IC50,HCT-116 [2],1.83 µM
CC(=O)N1C(=O)C(C(=O)c2ccc(F)cc2)C(=O)N(c2ccc(S(=O)(=O)Nc3nccs3)cc2)C1=S (stereo unspecified),IC50,[5],3.2 µM
O=c1[nH]cc(-c2ccc(O)cc2)c2nccn12,IC50,[20],1.3 µM
Cc1ccc(S(=O)(=O)Nc2ccc(-c3ccnc(Nc4ccc(S(=O)(=O)Nc5nccc(C)n5)cc4)c3C#N)cc2)cc1,IC50,MCF7 [21],18.3 µM
same,IC50,[22],1.79 µM
O=c1[nH]cc(-c2cccc(F)c2F)c2nccn12,IC50,[20],4.8 µM
O=C1N=NC(=O)/C(=C\Nc2ccc(-c3nc4ncccc4[nH]3)cc2)C(=O)N1,IC50,[28],0.5 µM
O=C1NN=C(Nc2ccccc2)/C1=C/Nc1ccc(O)cc1,IC50,MCF7 [23],23.3 µM
same,inhibition,[18],60%
COc1ccc(C2CC(c3c(O)c4ccccc4oc3=O)=NN2c2ccccc2)cc1OC (stereo unspecified),Ki,CDK9/cyclin T1,0.00326 µM
CCOC(=O)C1=C(C)n2nc(Nc3ccccc3)c(C(N)=O)c2NC1c1ccc(F)cc1 (stereo unspecified),IC50,Caco-2,29.3 µM
same,IC50,MCF7 [23],14.1 µM
same,IC50,HepG2,24.2 µM
same,IC50,A549 [24],30 µM
O=C1CC(=O)N(c2ccc(S(=O)(=O)Nc3ncccn3)cc2)C(=S)N1C(=O)c1ccccc1,IC50,[5],3.1 µM
CCC(CO)Nc1nc(NCc2ccccn2)c2ncn(CC)c2c1[N+](=O)[O-] (stereo unspecified),IC50,A549 [29],3.85 µM
same,IC50,CDK2/Cyclin A2 [30],0.021 µM
same,IC50,HCT-116 [31],1.56 µM
same,IC50,HL-60,3.71 µM
CCOC(=O)c1cnn2c(-c3ccc(Cl)cc3)nc(NCc3ccccc3)nc12,inhibition at 10 µM,[9],41.8%
same,IC50,CDK2/Cyclin A2 [10],2.09 µM
same,inhibition,[11],82.4%
O=c1[nH]cc(-c2ccccc2Cl)c2nccn12,IC50,[20],1.5 µM
CC(=O)C(=NNc1ccc(-c2nc3ncccc3[nH]2)cc1)C(C)=O,IC50,MCF7 [1],2.11 µM
same,IC50,HCT-116 [2],1.69 µM
